Reference: article PMC8442742 (Pain, 2021)

Key:
[1] = tested on: C57Bl/6 mice; experiment: Puzzle box test; format: in vivo; settings: two cycles of cisplatin; cardboard plug, trials 8–11
[2] = tested on: DRG transcriptome; experiment: RNA sequencing of DRG; format: in vivo, mice; settings: cisplatin alone vs controls, one cycle
[3] = tested on: NCI-H69 human lung cancer xenograft; experiment: NCI-H69 lung cancer xenograft, tumor volume; format: in vivo, BALB/c nude mice; settings: cisplatin 4 mg/kg i.p. every 4 days, 6 doses
[4] = tested on: synaptosomes; settings: two cycles of cisplatin
[5] = tested on: C57Bl/6 mice; experiment: Y maze spontaneous alternation test; format: in vivo; settings: two cycles of cisplatin
[6] = tested on: p-c-Jun in the DRGs; experiment: p-c-Jun in DRG after one treatment cycle; format: in vivo, mice; settings: one cycle of cisplatin 2.3 mg/kg i.p. for 5 days
[7] = tested on: intraepidermal nerve fibers; experiment: IENF density in hind paw skin; format: in vivo, mice; settings: two cycles of cisplatin 2.3 mg/kg i.p.

Q: Which “time to enter the goal box with difficult obstacle” value [1] does the source give for `N.N.[Cl][Pt][Cl]` [cisplatin] here?
A: required significantly more time to enter the goal box

Q: And the “number of genes with changed expression” value [2]?
A: 1337

Q: And the tumor growth [3]?
A: significantly reduced tumor growth

Q: And the “synaptosomal MRC and SRC” value [4]?
A: reduced maximal respiratory capacity and spare respiratory capacity

Q: And the “Y maze alternation rate” value [5]?
A: significant decrease in the alternation rate

Q: What about the “p-c-Jun in DRG” value [6] of the same molecule?
A: significantly, but modestly, induced p-c-Jun

Q: And the “IENF density in the hind paws” value [7]?
A: reduced IENF density
